Data published in patent US11414402B2, “Sulfonamide-substituted cyanopyrrolidines with activity as DUB inhibitors” (MISSION THERAPEUTICS LIMITED, priority 2017, dated 2022).
Read-outs that look alike come from different tables or passages of the source.

Columns and labels:
UCHL1 = UCHL1 (Homo sapiens (Human), UniProt P09936); experiment: UCHL1 biochemical IC50 assay (fluorescence polarisation)
Procedure: The UCHL1 construct was PCR amplified and cloned into a pFLAG-CMV-6a vector (Sigma-Aldrich) with an N-terminal FLAG tag. HEK293T cells were transfected with FLAG-UCHL1 using TransIT-LT1 transfection reagent (Mirus) according to the manufacturer's instructions. Cells were harvested 40 hours after transfection. […] The resin was washed two times with low salt buffer and one time with high salt buffer (20 mM Tris, pH 7.5, 500 mM NaCl, 0.5 mM EDTA, 5 mM beta-mercaptoethanol, protease inhibitors (complete mini, Roche) and phosphatase inhibitors (PhosSTOP mini, Roche). To elute the bound UCHL1, elution buffer (10 mM Tris, pH 7.5, 150 mM NaCl, 0.5 mM EDTA, 10% glycerol, 0.5% NP40, 5 mM beta-mercaptoethanol, 0.15 mg/ml 3× FLAG peptide (Sigma-Aldrich)) was added to the resin and incubated at 4° C. for 2.5 hours rotating. The resin was centrifuged at 4000 rpm for 30 seconds, and the supernatant containing purified FLAG-UCHL1 was removed and stored at −80° C.
UCHL1 was diluted in reaction buffer (20 mM Tris, pH 7.5, 100 mM NaCl, 0.05% Tween 20, 0.5 mg/ml BSA, 5 mM beta-mercaptoethanol) to the equivalent of 0, 0.01, 0.05, 0.1, 0.5, and 1 μl/well. Buffer was optimised for optimal temperature, pH, reducing agent, salts, time of incubation, and detergent. Reactions were initiated by the addition of 50 nM of TAMRA labelled peptide linked to ubiquitin via an iso-peptide bond as fluorescence polarisation substrate. Reactions were incubated at room temperature and read every 2 min for 120 min. Readings were performed on a Pherastar Plus (BMG Labtech). λ Excitation 540 nm; λ Emission 590 nm.
A typical 8-point dilution series to be 30, 10, 3, 1, 0.3, 0.1, 0.03, 0.01 μM final. […] Either 1 μl of 50% DMSO or diluted compound was added to the plate. UCHL1 was diluted in reaction buffer (20 mM Tris, pH 7.5, 100 mM NaCl, 0.05% Tween 20, 0.5 mg/ml BSA, 5 mM beta-mercaptoethanol) to the equivalent of 0.05 μl/well and 10 μl of diluted UCHL1 was added to the compound. Enzyme and compound were incubated for 30 min at room temp. Reactions were initiated by the addition of 50 nM of TAMRA labelled peptide linked to ubiquitin via an iso-peptide bond as fluorescence polarisation substrate. Reactions were read immediately after addition of substrate and following a 2-hour incubation at room temperature. Readings were performed on a Pherastar Plus (BMG Labtech). λ Excitation 540 nm; λ Emission 590 nm.

USP30 = USP30 (Homo sapiens (Human), UniProt Q70CQ3); experiment: USP30 biochemical IC50 assay (fluorescence polarisation)
Procedure: A typical 8-point dilution series would be 100, 30, 10, 3, 1, 0.3, 0.1, 0.03 μM final. […] Either 1 μl of 50% DMSO or diluted compound was added to the plate. USP30 was diluted in reaction buffer (40 mM Tris, pH 7.5, 0.005% Tween 20, 0.5 mg/ml BSA, 5 mM beta-mercaptoethanol) to the equivalent of 0.05 μl/well and 10 μl of diluted USP30 was added to the compound. Enzyme and compound were incubated for 30 min at room temp. Reactions were initiated by the addition of 50 nM of TAMRA labelled peptide linked to ubiquitin via an iso-peptide bond as fluorescence polarisation substrate. Reactions were read immediately after addition of substrate and following a 2-hour incubation at room temperature. Readings were performed on a Pherastar Plus (BMG Labtech). λ Excitation 540 nm; λ Emission 590 nm.

[1] = FLAG-UCHL1, 30 min preincubation at room temp, TAMRA-peptide-ubiquitin substrate 50 nM, read after 2-hour incubation, read-out: IC50 range
[2] = USP30 CD (57-517), 30 min preincubation at room temp, TAMRA-peptide-ubiquitin substrate 50 nM, read after 2-hour incubation, read-out: IC50 range

USP30, sequence (Q70CQ3 57-517): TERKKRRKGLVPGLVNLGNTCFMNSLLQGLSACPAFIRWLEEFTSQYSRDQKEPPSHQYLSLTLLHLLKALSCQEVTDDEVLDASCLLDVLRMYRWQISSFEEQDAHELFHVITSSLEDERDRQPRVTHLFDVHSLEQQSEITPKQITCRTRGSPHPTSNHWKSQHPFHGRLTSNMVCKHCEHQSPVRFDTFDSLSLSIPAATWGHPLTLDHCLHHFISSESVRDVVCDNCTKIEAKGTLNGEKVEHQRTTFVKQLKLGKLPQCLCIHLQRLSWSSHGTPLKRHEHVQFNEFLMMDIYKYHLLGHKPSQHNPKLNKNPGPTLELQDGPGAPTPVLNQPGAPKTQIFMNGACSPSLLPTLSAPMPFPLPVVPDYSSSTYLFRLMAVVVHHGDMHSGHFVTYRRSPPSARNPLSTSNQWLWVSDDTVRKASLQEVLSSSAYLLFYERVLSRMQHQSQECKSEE
UCHL1, sequence (P09936 whole entry): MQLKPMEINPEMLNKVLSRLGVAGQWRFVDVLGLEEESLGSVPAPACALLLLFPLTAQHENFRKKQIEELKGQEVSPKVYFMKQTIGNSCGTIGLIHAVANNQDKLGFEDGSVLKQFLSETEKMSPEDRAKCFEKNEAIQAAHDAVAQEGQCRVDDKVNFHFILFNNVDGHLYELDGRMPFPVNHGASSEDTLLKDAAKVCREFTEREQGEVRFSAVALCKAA

Structure (SMILES) | IC50 (UCHL1; [1]) | IC50 (USP30; [2]) | IC50 (UCHL1) | IC50 (USP30)
N#CN1CCC(NS(=O)(=O)c2ccccc2-c2ccccc2)C1 (centres unmarked) [Example 1, N-(1-cyanopyrrolidin-3-yl)-[1,1′-biphenyl]-2-sulfonamide] | 10000 to 100000 nM | 100 to 1000 nM |  | 
N#CN1CCC(NS(=O)(=O)c2ccc(-c3ccccc3)cc2)C1 (centres unmarked) [Example 2, N-(1-cyanopyrrolidin-3-yl)-[1,1′-biphenyl]-4-sulfonamide] | 1000 to 10000 nM | 100 to 1000 nM |  | 
N#CN1CC[C@@H](NS(=O)(=O)c2ccc(-c3ccccc3)cc2)C1 [Example 3, (R)-N-(1-cyanopyrrolidin-3-yl)-[1,1′-biphenyl]-4-sulfonamide] | 10000 to 100000 nM | 100 to 1000 nM |  | 
N#CN1CC[C@H](NS(=O)(=O)c2ccc(-c3ccccc3)cc2)C1 [Example 4, (S)-N-(1-cyanopyrrolidin-3-yl)-[1,1′-biphenyl]-4-sulfonamide] | 1000 to 10000 nM | 100 to 1000 nM |  | 
N#CN1CCC(NS(=O)(=O)c2ccccc2)C1 (centres unmarked) [Example 5, N-(1-cyanopyrrolidin-3-yl)benzenesulfonamide] | 10000 to 100000 nM |  |  | 
N#CN1CC[C@H](NS(=O)(=O)c2ccccc2)C1 [Example 6, (S)-N-(1-cyanopyrrolidin-3-yl)benzenesulfonamide] | 10000 to 100000 nM | 1000 to 10000 nM |  | 
N#CN1CCC(NS(=O)(=O)c2ccc(OCc3ccccc3)cc2)C1 (centres unmarked) [Example 8] | 1000 to 10000 nM | 100 to 1000 nM |  | 
N#CN1CCC(NS(=O)(=O)c2ccc(-c3cncnc3)cc2)C1 (centres unmarked) [Example 9, N-(1-cyanopyrrolidin-3-yl)-4-(pyrimidin-5-yl)benzenesulfonamide] | 1000 to 10000 nM | 100 to 1000 nM |  | 
N#CN1CCC(NS(=O)(=O)c2ccc(-c3ccccc3)cn2)C1 (centres unmarked) [Example 11, N-(1-cyanopyrrolidin-3-yl)-5-phenylpyridine-2-sulfonamide] | 10000 to 100000 nM | 100 to 1000 nM |  | 
N#CN1CCC(NS(=O)(=O)c2ccc(-c3ccc(F)cc3)cc2)C1 (centres unmarked) [Example 12, N-(1-cyanopyrrolidin-3-yl)-4′-fluoro-[1,1′-biphenyl]-4-sulfonamide] | 1000 to 10000 nM |  |  | 
N#CN1CCC(NS(=O)(=O)c2ccc(-c3ccncc3)cc2)C1 (centres unmarked) [Example 13, N-(1-cyanopyrrolidin-3-yl)-4-(pyridin-4-yl)benzenesulfonamide] | 1000 to 10000 nM | 100 to 1000 nM |  | 
N#CN1CCC(NS(=O)(=O)c2ccc(N3CCCCC3)cc2)C1 (centres unmarked) [Example 14, N-(1-cyanopyrrolidin-3-yl)-4-(piperidin-1-yl)benzenesulfonamide] | 10000 to 100000 nM | 100 to 1000 nM |  | 
Cn1cc(-c2ccc(S(=O)(=O)NC3CCN(C#N)C3)cc2)cn1 (centres unmarked) [Example 15, N-(1-cyanopyrrolidin-3-yl)-4-(1-methyl-1H-pyrazol-4-yl)benzenesulfonamide] | 1000 to 10000 nM | 100 to 1000 nM |  | 
N#CN1CCC(NS(=O)(=O)c2ccc(Oc3ccccc3)nc2)C1 (centres unmarked) [Example 16, N-(1-cyanopyrrolidin-3-yl)-6-phenoxypyridine-3-sulfonamide] | 10000 to 100000 nM | 100 to 1000 nM |  | 
CC(C)c1ccc(S(=O)(=O)NC2CCN(C#N)C2)cc1 (centres unmarked) [Example 18, N-(1-cyanopyrrolidin-3-yl)-4-isopropylbenzenesulfonamide] | 10000 to 100000 nM | 1000 to 10000 nM |  | 
N#CN1CCC(NS(=O)(=O)c2ccc(Oc3ccc(C(F)(F)F)cn3)cc2)C1 (centres unmarked) [Example 19, N-(1-cyanopyrrolidin-3-yl)-4-((5-(trifluoromethyl)pyridin-2-yl)oxy)benzenesulfonamide] | 100 to 1000 nM | 100 to 1000 nM |  | 
CN([C@@H]1CCN(C#N)C1)S(=O)(=O)c1ccc(-c2cccnc2)cc1 [Example 20, (R)—N-(1-cyanopyrrolidin-3-yl)-N-methyl-4-(pyridin-3-yl)benzenesulfonamide] | 1000 to 10000 nM | 100 to 1000 nM |  | 
Cn1nccc1C(=O)Nc1ccc(S(=O)(=O)NC2CCN(C#N)C2)cn1 (centres unmarked) [Example 24, N-(5-(N-(1-cyanopyrrolidin-3-yl)sulfamoyl)pyridin-2-yl)-1-methyl-1H-pyrazole-5-carboxamide] | 10000 to 100000 nM | 100 to 1000 nM |  | 
CN(C1CCN(C#N)C1)S(=O)(=O)c1ccc(Oc2ccc(C(F)(F)F)cn2)cc1 (centres unmarked) [Example 25, N-(1-cyanopyrrolidin-3-yl)-N-methyl-4-((5-(trifluoromethyl)pyridin-2-yl)oxy)benzenesulfonamide] | 1000 to 10000 nM | 100 to 1000 nM |  | 
N#CN1CCC(S(=O)(=O)Nc2ccc(-c3ccccc3)cc2)C1 (centres unmarked) [Example 26, N-([1,1′-biphenyl]-4-yl)-1-cyanopyrrolidine-3-sulfonamide] |  |  | 10000 to 100000 nM | 100 to 1000 nM
